According to ChEMBL document CHEMBL1151635, “Antineoplastic agents, 105. Zephyranthes grandiflora” (1984):

Assays:
Format in all cases: functional
P388 [1] = assay: Cytotoxicity against mouse P388 cells; conditions: read-out: ED50 (the source's name)
P388 [2] = assay: In vivo cytotoxicity against mouse P388 cells at 0.75 to 6 mg/kg relative to control; conditions: dose mg/kg 0.75-6
P388 [3] = assay: In vivo cytotoxicity against mouse P388 cells at 0.78 to 3.1 mg/kg relative to control; conditions: dose mg/kg 0.78-3.1
P388 [4] = assay: In vivo cytotoxicity against mouse P388 cells at 12.5 mg/kg relative to control

Compound: O=C1N[C@H]2[C@H](O)[C@H](O)[C@@H](O)[C@H](O)[C@@H]2c2cc3c(c(O)c21)OCO3 [PANCRATISTATIN]
- EC50 (P388 [1]): < 0.01 µg/mL
- T/C (P388 [2]): 138%
- T/C (P388 [3]): 135%
- T/C (P388 [4]): 206%
